According to the NIST ThermoML archive (doi:10.1021/je8002699):

Key:
[1] = refractive index (Na D-line) (dimensionless); xn = mol fraction of the nth substance listed; details: 101 kPa, Liquid
[2] = xn = mol fraction of the nth substance listed; details: for mass density / speed of sound / viscosity: 101 kPa, Liquid

CC(=O)CC(C)(C)O [4-hydroxy-4-methylpentan-2-one] + CCc1ccccc1
Details | mass density, [2] [kg/m3] | refractive index, [1] | speed of sound, [2] [m/s] | surface tension liquid-gas, [2] [mN/m] | viscosity, [2] [mPa·s]
303.15 K, x1 = 0.1814 | 880.9 | 1.4864 | 1322 | 29.92 | 1.02
303.15 K, x1 = 0.2621 | 886.6 | 1.4813 | 1316 | 29.88 | 1.191
303.15 K, x1 = 0.3445 | 892.5 | 1.4753 | 1311 | 29.84 | 1.35
303.15 K, x1 = 0.4219 | 898 | 1.4701 | 1305 | 29.8 | 1.511
303.15 K, x1 = 0.5447 | 906.5 | 1.4599 | 1296 | 29.76 | 1.752
303.15 K, x1 = 0.6624 | 914.7 | 1.4505 | 1286 | 29.71 | 2.001
303.15 K, x1 = 0.7667 | 922 | 1.4425 | 1277 | 29.62 | 2.266
303.15 K, x1 = 0.8388 | 926.5 | 1.4373 | 1271 | 29.58 | 2.433
303.15 K, x1 = 0.9219 | 931.5 | 1.43 | 1264 | 29.5 | 2.66
303.15 K, x1 = 1 | 936 | 1.4239 | 1256 | 29.44 | 2.89
313.15 K, x1 = 0.1814 | 856 | 1.479 | 1271 | 29.04 | 0.9211
313.15 K, x1 = 0.2621 | 861.8 | 1.4741 | 1265 | 29.04 | 1.066
313.15 K, x1 = 0.3445 | 867.8 | 1.469 | 1257 | 29.03 | 1.234
313.15 K, x1 = 0.4219 | 873.3 | 1.4637 | 1250 | 29.03 | 1.4
313.15 K, x1 = 0.5447 | 882.2 | 1.454 | 1237 | 29.03 | 1.501
313.15 K, x1 = 0.6624 | 890.8 | 1.4458 | 1224 | 29.03 | 1.688
313.15 K, x1 = 0.7667 | 897.5 | 1.4384 | 1212 | 29.03 | 1.911
313.15 K, x1 = 0.8388 | 902.2 | 1.4335 | 1204 | 29 | 2.377
313.15 K, x1 = 0.9219 | 907.6 | 1.4264 | 1194 | 28.95 | 2.511
313.15 K, x1 = 1 | 912.1 | 1.4198 | 1183 | 28.92 | 2.791
323.15 K, x1 = 0.1814 | 845.9 | 1.4721 | 1192 | 27.97 | 0.7842
323.15 K, x1 = 0.2621 | 851.6 | 1.4675 | 1186 | 27.9 | 0.8814
323.15 K, x1 = 0.3445 | 857.5 | 1.4624 | 1180 | 27.82 | 0.9901
323.15 K, x1 = 0.4219 | 863 | 1.4518 | 1175 | 27.75 | 1.011
323.15 K, x1 = 0.5447 | 871.5 | 1.451 | 1165 | 27.64 | 1.201
323.15 K, x1 = 0.6624 | 879.9 | 1.4433 | 1156 | 27.53 | 1.354
323.15 K, x1 = 0.7667 | 886.6 | 1.4363 | 1146 | 27.44 | 1.521
323.15 K, x1 = 0.8388 | 891.3 | 1.4285 | 1138 | 27.35 | 1.812
323.15 K, x1 = 0.9219 | 896.9 | 1.4225 | 1130 | 27.24 | 2.082
323.15 K, x1 = 1 | 901 | 1.4151 | 1121 | 27.12 | 2.67

CC(=O)CC(C)(C)O [4-hydroxy-4-methylpentan-2-one] + O=[N+]([O-])c1ccccc1
Details | mass density, [2] [kg/m3] | refractive index, [1] | speed of sound, [2] [m/s] | surface tension liquid-gas, [2] [mN/m] | viscosity, [2] [mPa·s]
303.15 K, x1 = 0.1248 | 1163.9 | 1.5377 | 1395 | 39.8 | 2.022
303.15 K, x1 = 0.2389 | 1130.2 | 1.5245 | 1378 | 38.7 | 2.161
303.15 K, x1 = 0.3446 | 1102.1 | 1.5113 | 1363 | 37.5 | 2.282
303.15 K, x1 = 0.4921 | 1062 | 1.4931 | 1341 | 35.9 | 2.45
303.15 K, x1 = 0.5853 | 1038 | 1.4822 | 1327 | 34.7 | 2.562
303.15 K, x1 = 0.6427 | 1023 | 1.474 | 1317 | 34 | 2.624
303.15 K, x1 = 0.7532 | 995.6 | 1.4601 | 1298 | 32.7 | 2.735
303.15 K, x1 = 0.8226 | 979.1 | 1.45 | 1287 | 31.7 | 2.791
303.15 K, x1 = 0.9349 | – | 1.43 | 1263 | 29.5 | 2.889
303.15 K, x1 = 1 | 936 | 1.4239 | 1256 | 29.44 | 2.89
313.15 K, x1 = 0.1248 | 1157.7 | 1.5351 | 1304 | 37.45 | 1.752
313.15 K, x1 = 0.2389 | 1120.9 | 1.521 | 1290 | 36.6 | 1.931
313.15 K, x1 = 0.3446 | 1088.8 | 1.508 | 1277 | 35.6 | 2.137
313.15 K, x1 = 0.4921 | 1046.3 | 1.4897 | 1258 | 34.3 | 2.412
313.15 K, x1 = 0.5853 | 1019.9 | 1.4782 | 1244 | 33.4 | 2.541
313.15 K, x1 = 0.6427 | 1004.4 | 1.4706 | 1236 | 32.8 | 2.661
313.15 K, x1 = 0.7532 | 975.5 | 1.4548 | 1221 | 31.7 | 2.741
313.15 K, x1 = 0.8226 | 957.8 | 1.4456 | 1211 | 31 | 2.764
313.15 K, x1 = 0.9349 | – | 1.4261 | 1190 | 29.4 | 2.79
313.15 K, x1 = 1 | 912 | 1.4198 | 1183 | 28.92 | 2.791
323.15 K, x1 = 0.1248 | 1146.5 | 1.5304 | 1212 | 35.8 | 1.658
323.15 K, x1 = 0.2389 | 1109.6 | 1.5268 | 1201 | 35 | 1.843
323.15 K, x1 = 0.3446 | 1077.5 | 1.5048 | 1192 | 34.3 | 2.018
323.15 K, x1 = 0.4921 | 1035 | 1.486 | 1178 | 33.11 | 2.32
323.15 K, x1 = 0.5853 | 999.9 | 1.475 | 1169 | 32.3 | 2.492
323.15 K, x1 = 0.6427 | 993.1 | 1.4675 | 1163 | 31.8 | 2.579
323.15 K, x1 = 0.7532 | 964.3 | 1.4503 | 1152 | – | 2.651
323.15 K, x1 = 0.8226 | 946.6 | 1.4412 | 1144 | 30.1 | 2.661
323.15 K, x1 = 0.9349 | 910 | 1.4215 | 1128 | 28.8 | 2.67
323.15 K, x1 = 1 | 901 | 1.4151 | 1121 | 28.12 | 2.67
